Here are results for two molecules from paper PMC9959817, “Flow-Based Fmoc-SPPS Preparation and SAR Study of Cathelicidin-PY Reveals Selective Antimicrobial Activity” (Molecules, 2023).

Values after ≈ are worked out from the molar mass of the structure shown. Read-outs that look alike come from different tables or passages of the source. Where a SMILES comes first, the peptide text is derived from it. Bridges are numbered along the chain shown (N, C = ends).

In one test the test system is Escherichia coli. To be noted: isolation report, assays in Luria Broth (LB); cited from earlier work. An excerpt: (§1) Furthermore, these have shown promising anti-inflammatory and specific immune modulatory capabilities in immunocytes, as well as antiviral activity against human immunodeficiency virus (HIV), influenza A virus (I ...
The test system of another test is Candida albicans. To be noted: isolation report; cited from earlier work.
Description: as §1

The subject of the next test is Pseudomonas aeruginosa. The following applies: isolation report, assays in Luria Broth (LB); cited from earlier work.
Description: as §1

For a further test, the system named is Staphylococcus aureus. The following applies: isolation report, assays in Luria Broth (LB); cited from earlier work.
Description: as §1

Another test has as its system S. aureus (ATCC 29213). Kind of test: microbe, parasite or virus in culture. Format: cell-based, Staphylococcus aureus. To be noted: ATCC 29213; read-out: Minimum Inhibitory Concentration. An excerpt: (§2) As we were primarily interested in the clinical potential of cathelicidin-PY (1) and its analogues 2–9, cation-adjusted Mueller-Hinton broth (CAMHB) was implemented during our in vitro antimicrobial screening towards bacteria. However, non-cation adjusted Mueller Hinton broth (MHB) was also implemented to evaluate the cation sensitivity of these AMPs. In each medium, compounds 1–9 were subjected to minimum inhibitory concentration (MIC) assays with E. coli (ATCC 25922), P. aeruginosa (SVB-B9), and S. aureus (ATCC 29213), in accordance with CLSI microbroth dilution protocols (Table 1). It is noteworthy, however, that the initial report of cathelicidin-PY’s isolation documented MIC assays performed in Luria Broth (LB). Furthermore, antifungal activity towards C. albicans was investigated.
(§3) Staphylococcus aureus ATCC 29213, Pseudomonas aeruginosa (SVB-B9) (type strain), and Escherichia coli ATCC 25,922 were grown in either non-cation-adjusted or cation-adjusted Mueller Hinton (MH) broth at 37 °C with shaking (200 rpm). MIC assays were performed in technical triplicate in accordance with the CLSI-recommended protocol. All assays were performed independently on three occasions, with the reported MIC defined as the lowest concentration for which agreement was observed consistently for all replicates.

Another test concerns C. albicans (SC5314). In words: microbe, parasite or virus in culture. Format: cell-based, Candida albicans. The following applies: SC5314; read-out: Minimum Inhibitory Concentration.
Description: as §2
Antimicrobial susceptibility of Candida albicans SC5314 (type strain) was assessed by broth microdilution in RPMI 1640 media in accordance with the CLSI recommended protocols. All assays were performed independently on three occasions, with the reported MIC defined as the lowest concentration for which agreement was observed consistently for all replicates.

The next test deals with P. aeruginosa (SVB-B9). Kind of test: microbe, parasite or virus in culture. Format: cell-based, Pseudomonas aeruginosa. The following applies: P. aeruginosa SVB-B9 type strain; non-cation-adjusted Mueller-Hinton broth (MHB); 37 °C; technical triplicate, three independent occasions; read-out: Minimum Inhibitory Concentration.
Description: as §2, §3

A further test concerns E. coli (ATCC 25922). Format: cell-based, Escherichia coli. The following applies: 37 °C, technical triplicate, three independent occasions.
Description: as §2, §3

Take `CC[C@H](C)[C@H](NC(=O)[C@H](Cc1c[nH]cn1)NC(=O)[C@H](CO)NC(=O)[C@@H](NC(=O)[C@@H](NC(=O)[C@@H](NC(=O)[C@@H](NC(=O)[C@H](CCCNC(=N)N)NC(=O)[C@H](CC(C)C)NC(=O)[C@H](CCCCN)NC(=O)[C@H](CCC(=O)O)NC(=O)[C@H](CCCCN)NC(=O)[C@H](CC(C)C)NC(=O)[C@H](CCCCN)NC(=O)[C@@H]1CSSC[C@H](NC(=O)[C@H](CCCCN)NC(=O)[C@@H](N)CCCNC(=N)N)C(=O)N[C@@H](CC(N)=O)C(=O)N[C@@H](Cc2ccccc2)C(=O)N[C@@H](CC(C)C)C(=O)N1)[C@@H](C)O)C(C)C)[C@@H](C)CC)[C@@H](C)O)C(=O)N[C@@H](CC(=O)O)C(=O)N[C@@H](CCCCN)C(=O)N[C@H](C(=O)N[C@@H](CC(C)C)C(=O)N[C@@H](CCCNC(=N)N)C(=O)N1CCC[C@H]1C(=O)N[C@@H](CCC(N)=O)C(=O)NCC(=O)O)C(C)C` [Compound 1, Cathelicidin-PY] (H-RKCNFLCKLKEKLRTVITSHIDKVLRPQG-OH; disulfide 3-7): the MIC in the test with Escherichia coli is 1.37 µM (≈ 4.69 µg/mL); in the test on Candida albicans it was 1.37 µM (≈ 4.69 µg/mL); in the test on Pseudomonas aeruginosa it was 5.48 µM (≈ 18.8 µg/mL); in the test on Staphylococcus aureus it was 2.74 µM (≈ 9.38 µg/mL); with S. aureus (ATCC 29213), over 64 µM; in the test with C. albicans (SC5314), over 64 µM.
Regarding “polymyxin B sulfate [reference compound]”, the MIC in the test with P. aeruginosa (SVB-B9) is reported as 2 µM. Further, the “Minimum Inhibitory Concentration” value in the test on E. coli (ATCC 25922) (cation-adjusted Mueller-Hinton broth (CAMHB)) and with E. coli (ATCC 25922) (non-cation-adjusted Mueller-Hinton broth (MHB)) was 1 µM each time.
